# Source: US20190241569A1, “3-(ARYL OR HETEROARYL) METHYLENEINDOLIN-2-ONE DERIVATIVES AS INHIBITORS OF CANCER STEM CELL PATHWAY KINASES FOR THE TREATMENT OF CANCER” (Boston Biomedical, Inc., priority 2013, published 2019)
# Legend:
# Type in all cases: cell-based
# FaDu CSC = assay: Cancer stem cells, Cell Titer-Glo 72 hours (Test Example 3); details: Homo sapiens, FaDu, 72 h
# FaDu = assay: Bulk cancer cells, Cell Titer-Glo 72 hours (Test Example 2); details: Homo sapiens
# Procedure: (§1) Tubes of 3× drug (60 uM in 500 uL complete media) were prepared from 5 mM stock solutions in DMSO. […] To treat cells, 50 uL of drug from the dilution plate was removed and added to the cell plates. […] Cells were harvested 72 hours after drug addition using Cell Titer-Glo (Promega) and luminescence measured on a plate reader.
# ACHN = assay: as above; details: Homo sapiens, ACHN, 72 h
# Procedure: as §1
SMILES,IC50 (FaDu CSC),IC50 (FaDu),IC50 (ACHN)
Cc1[nH]c(/C=C2\C(=O)Nc3ccc(-c4cnn(-c5ccccc5)c4C)cc32)c(C)c1C(=O)N1CCN(C)CC1 [Example 5],14.8 µM,–,–
Cc1[nH]c(/C=C2\C(=O)Nc3ccc(-c4cnn(-c5ccccc5)c4C)cc32)c(C)c1C(=O)N1CCOCC1 [Example 13],37.2 µM,6.76 µM,–
Cc1[nH]c(/C=C2\C(=O)Nc3ccc(-c4cnc(-c5ccccc5)o4)cc32)c(C)c1C(=O)N1CCN(C)CC1 [Example 18],9.35 µM,12.1 µM,–
Cc1[nH]c(/C=C2\C(=O)Nc3ccc(-c4ncc(-c5ccccc5)o4)cc32)c(C)c1C(=O)N1CCN(C)CC1 [Example 20],2.38 µM,–,–
Cc1[nH]c(/C=C2\C(=O)Nc3ccc(-c4ccnn4-c4ccccc4)cc32)c(C)c1C(=O)N1CCN(C)CC1 [Example 23],11.5 µM,4.55 µM,–
Cc1[nH]c(/C=C2\C(=O)Nc3ccc(-c4ccnn4-c4ccc(C#N)cc4)cc32)c(C)c1C(=O)N1CCN(C)CC1 [Example 24],48.2 µM,–,–
Cc1[nH]c(/C=C2\C(=O)Nc3ccc(-c4cnn(-c5ccccn5)c4)cc32)c(C)c1C(=O)N1CCOCC1 [Example 30],8.94 µM,–,–
Cc1[nH]c(/C=C2\C(=O)Nc3ccc(-c4cnc(-c5ccccc5)[nH]4)cc32)c(C)c1C(=O)N1CCN(C)CC1 [Example 44],13.2 µM,5.54 µM,–
CC(=O)N1CCC(N2CCC(c3ccc4c(c3)/C(=C/c3[nH]c(C)c(C(=O)N5CCN(C)CC5)c3C)C(=O)N4)CC2)CC1 [Example 46],15.6 µM,23.2 µM,–
CN1CCN(C(=O)c2ccc(/C=C3\C(=O)Nc4ccc(-c5csc(-c6ccccc6)n5)cc43)[nH]c2=O)CC1 [Example 122],23.2 µM,–,–
Cc1[nH]c(/C=C2\C(=O)Nc3ccc(-c4csc(C5CCNCC5)n4)cc32)c(C)c1C(=O)O [Example 142],5.62 µM,–,–
O=C1Nc2ccc(-c3csc(-c4ccncc4)n3)cc2/C1=C/c1cc2ccccc2[nH]1 [Example 158],3.07 µM,–,–
O=C1Nc2ccc(-c3csc(-c4ccccc4)n3)cc2/C1=C/c1cc2ccccc2[nH]1 [Example 159],–,49.3 µM,–
O=C1Nc2ccc(-c3csc(-c4ccccc4)n3)cc2/C1=C/c1ccc(N2CCOCC2)cc1 [Example 172],–,35.5 µM,–
O=C1Nc2ccc(-c3csc(-c4ccncc4)n3)cc2/C1=C/c1ccc(N2CCOCC2)cc1 [Example 173],–,17.5 µM,–
Cc1cc(C)c(/C=C2\C(=O)Nc3ccc(-c4ccc5ccccc5n4)cc32)[nH]1 [Example 214],–,–,7.44 µM
COc1cccnc1-c1ccc2c(c1)/C(=C/c1[nH]c(C)cc1C)C(=O)N2 [Example 222],–,33.2 µM,–
Cc1cc(C)c(/C=C2\C(=O)Nc3cc(-c4ccc(-c5ccccc5)nc4)ccc32)[nH]1 [Example 241],18.2 µM,–,–
Cc1cc(C)c(/C=C2\C(=O)Nc3cc(-c4cnc5ccnn5c4)ccc32)[nH]1 [Example 243],14.9 µM,–,–
Cc1cc(C)c(/C=C2\C(=O)Nc3cc(-c4cccc(C#N)c4C)ccc32)[nH]1 [Example 245],39.1 µM,–,–
Cc1cc(C)c(/C=C2\C(=O)Nc3cc(-c4ccc5ccccc5n4)ccc32)[nH]1 [Example 248],–,14 µM,–

# More lines, now with the values ahead:
IC50 (FaDu CSC),IC50 (FaDu),IC50 (ACHN),SMILES
–,23.9 µM,–,CCN(CC)CCNC(=O)c1c(C)[nH]c(/C=C2\C(=O)Nc3ccc(C4CCN(C5CCOCC5)CC4)cc32)c1C [Example 12]
1.64 µM,4.44 µM,–,Cc1[nH]c(/C=C2\C(=O)Nc3ccc(-c4ccc(-c5ccccc5)s4)cc32)c(C)c1C(=O)NCCN1CCCC1 [Example 14]
4.96 µM,17.3 µM,–,CCN(CC)CCNC(=O)c1c(C)[nH]c(/C=C2\C(=O)Nc3ccc(-c4ccnn4-c4ccc(C#N)cc4)cc32)c1C [Example 25]
1.31 µM,5.79 µM,–,Cc1[nH]c(/C=C2\C(=O)Nc3ccc(-c4cnn(-c5ccccc5)c4C)cc32)c(C)c1C(=O)NCCN1CCCC1 [Example 28]
18.2 µM,–,–,CCN(CC)CCNC(=O)c1c(C)[nH]c(/C=C2\C(=O)Nc3ccc(-c4oc(-c5ccccc5)nc4C)cc32)c1C [Example 34]
–,5.34 µM,20.6 µM,CCN(CC)CCNC(=O)c1c(C)[nH]c(/C=C2\C(=O)Nc3ccc(-c4cnc(-c5ccccc5)[nH]4)cc32)c1C [Example 41]
18.8 µM,6.47 µM,–,CCN(CC)CCNC(=O)c1c(C)[nH]c(/C=C2\C(=O)Nc3ccc(C4CCN(c5ncccn5)CC4)cc32)c1C [Example 43]
2.8 µM,6.16 µM,–,CCN(CC)CCNC(=O)c1c(C)[nH]c(/C=C2\C(=O)Nc3ccc(-c4nc(-c5ccccc5)n[nH]4)cc32)c1C [Example 50]
21.5 µM,8.23 µM,–,CCN(CC)CCNC(=O)c1c(C)[nH]c(/C=C2\C(=O)Nc3ccc(-c4nnc(-c5ccccc5)o4)cc32)c1C [Example 53]
–,23.7 µM,–,CCN(CC)CCNC(=O)c1c(C)[nH]c(/C=C2\C(=O)Nc3ccc(-c4cnc(-c5ccccc5)s4)cc32)c1C [Example 54]
–,3.05 µM,–,Cc1ccc(-c2nc(-c3ccc4c(c3)/C(=C/c3[nH]c(C)c(C(=O)N5CCOCC5)c3C)C(=O)N4)cs2)cc1 [Example 105]
20.2 µM,–,–,CCOC(=O)c1c(C)[nH]c(/C=C2\C(=O)Nc3ccc(-c4csc(-c5ccccc5)n4)cc32)c1C [Example 108]
1.6 µM,–,–,CCN(CC)CCNC(=O)c1c(C)[nH]c(/C=C2\C(=O)Nc3ncc(-c4csc(-c5ccccc5)n4)cc32)c1C [Example 116]
–,39.2 µM,–,Cc1[nH]c(/C=C2\C(=O)Nc3ncc(-c4csc(-c5ccccc5)n4)cc32)c(C)c1C(=O)N1CCN(C)CC1 [Example 117]
4.75 µM,11.2 µM,–,CCN(CC)CCNC(=O)c1c(C)[nH]c(/C=C2\C(=O)Nc3cnc(-c4csc(-c5ccccc5)n4)cc32)c1C [Example 120]
33.7 µM,–,–,O=C1Nc2ccc(-c3csc(-c4ccccc4)n3)cc2/C1=C/c1ccc(C(=O)NCCN2CCOCC2)c(=O)[nH]1 [Example 123]
–,46.9 µM,–,CCN(CC)CCNC(=O)c1c(C)[nH]c(/C=C2\C(=O)Nc3ccc(-c4csc(-c5ccccn5)n4)cc32)c1C [Example 124]
1.33 µM,3.68 µM,–,CCN(CC)CCNC(=O)c1c(C)[nH]c(/C=C2\C(=O)Nc3ccc(-c4csc(-c5ccc(Br)cc5)n4)cc32)c1C [Example 125]
7.82 µM,24.8 µM,–,CCN(CC)CCNC(=O)c1c(C)[nH]c(/C=C2\C(=O)Nc3ccc(-c4csc(-c5cccc(Br)c5)n4)cc32)c1C [Example 127]
2.17 µM,5.35 µM,–,CCN(CC)CCNC(=O)c1c(C)[nH]c(/C=C2\C(=O)Nc3ccc(-c4cs/c(=N\c5ccccc5)n4C)cc32)c1C [Example 132]
2.34 µM,–,–,CCOC(=O)CCc1cccc(-c2nc(-c3ccc4c(c3)/C(=C/c3[nH]c(C)c(C(=O)NCCN(CC)CC)c3C)C(=O)N4)cs2)c1 [Example 134]
2.52 µM,–,–,CCOC(=O)CCc1ccc(-c2nc(-c3ccc4c(c3)/C(=C/c3[nH]c(C)c(C(=O)NCCN(CC)CC)c3C)C(=O)N4)cs2)cc1 [Example 136]
–,–,14.6 µM,Cc1[nH]c(/C=C2\C(=O)Nc3ccc(-c4csc(-c5ccncc5)n4)cc32)c(C)c1CCC(=O)O [Example 154]
–,–,9.91 µM,CCN(CC)CCNC(=O)c1[nH]c(/C=C2\C(=O)Nc3ccc(-c4csc(-c5ccccc5)n4)cc32)c2c1CCCC2 [Example 166]
–,23.9 µM,–,CCN(CC)CCNC(=O)c1c(C)[nH]c(/C=C2\C(=O)Nc3cc(-c4ccc5cn[nH]c(=O)c5c4)ccc32)c1C [Example 252]
